Test results taken from ChEMBL document CHEMBL4507329, “Data for DCP probe BTZO-1” (2021).

Assays:
[1] = tested on: Tyrosine-protein kinase ABL1 (Homo sapiens), P00519 [Y253F]; conditions: Compound concentration 1000.0 nM
[2] = target: Serine/threonine-protein kinase PLK3 (Homo sapiens) (UniProt Q9H4B4); conditions: Compound concentration 1000.0 nM
[3] = target: Alpha-2C adrenergic receptor (Homo sapiens) (UniProt P18825); conditions: Compound concentration 10.0 uM
[4] = target: Cyclin-dependent kinase 4 (Homo sapiens) (UniProt P11802); conditions: Compound concentration 1000.0 nM
[5] = target: Phosphatidylinositol 3-kinase C2 domain-containing subunit gamma (Homo sapiens) (UniProt O75747); conditions: Compound concentration 1000.0 nM
[6] = target: SNF-related serine/threonine-protein kinase (Homo sapiens) (UniProt Q9NRH2); conditions: Compound concentration 1000.0 nM
Sequence of SNF-related serine/threonine-protein kinase (Homo sapiens) (Q9NRH2 whole entry): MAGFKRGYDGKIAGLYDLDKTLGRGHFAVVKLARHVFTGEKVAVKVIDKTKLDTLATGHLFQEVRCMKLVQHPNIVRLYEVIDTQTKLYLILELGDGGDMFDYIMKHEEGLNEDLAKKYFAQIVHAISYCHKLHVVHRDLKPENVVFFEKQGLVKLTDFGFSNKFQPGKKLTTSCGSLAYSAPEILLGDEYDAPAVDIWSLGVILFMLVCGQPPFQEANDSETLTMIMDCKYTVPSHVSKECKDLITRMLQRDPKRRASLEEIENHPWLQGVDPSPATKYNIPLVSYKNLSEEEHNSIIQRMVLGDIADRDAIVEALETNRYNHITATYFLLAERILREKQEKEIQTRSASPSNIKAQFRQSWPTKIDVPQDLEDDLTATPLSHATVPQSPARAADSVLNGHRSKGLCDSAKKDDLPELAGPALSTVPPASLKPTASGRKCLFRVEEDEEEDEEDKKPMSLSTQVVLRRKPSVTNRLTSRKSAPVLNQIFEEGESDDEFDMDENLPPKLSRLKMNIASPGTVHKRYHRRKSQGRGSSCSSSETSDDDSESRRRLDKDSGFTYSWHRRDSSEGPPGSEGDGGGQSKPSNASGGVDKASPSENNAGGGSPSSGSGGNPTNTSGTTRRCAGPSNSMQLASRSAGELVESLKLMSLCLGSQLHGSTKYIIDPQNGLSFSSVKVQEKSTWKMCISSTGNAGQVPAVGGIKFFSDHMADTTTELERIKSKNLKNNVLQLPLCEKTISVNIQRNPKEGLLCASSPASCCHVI

[7] = target: Tyrosine-protein kinase Blk (Homo sapiens) (UniProt P51451); conditions: Compound concentration 1000.0 nM
Sequence of Tyrosine-protein kinase Blk (Homo sapiens) (P51451 2-505 limits assumed): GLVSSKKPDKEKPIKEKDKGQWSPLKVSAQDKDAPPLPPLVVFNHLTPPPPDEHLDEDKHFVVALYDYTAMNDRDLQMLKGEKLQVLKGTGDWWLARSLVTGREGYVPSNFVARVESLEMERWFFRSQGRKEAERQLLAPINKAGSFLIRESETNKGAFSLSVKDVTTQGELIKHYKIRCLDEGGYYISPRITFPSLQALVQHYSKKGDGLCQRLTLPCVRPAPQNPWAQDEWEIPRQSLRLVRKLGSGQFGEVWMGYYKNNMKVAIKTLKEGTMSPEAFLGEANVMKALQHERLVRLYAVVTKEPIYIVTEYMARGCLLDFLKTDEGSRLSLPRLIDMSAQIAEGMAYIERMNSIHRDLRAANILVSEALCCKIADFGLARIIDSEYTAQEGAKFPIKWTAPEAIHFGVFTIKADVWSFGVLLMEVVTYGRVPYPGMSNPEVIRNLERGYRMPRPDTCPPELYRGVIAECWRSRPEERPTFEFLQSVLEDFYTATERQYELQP

[8] = target: Histamine H3 receptor (Homo sapiens) (UniProt Q9Y5N1); conditions: Compound concentration 10.0 uM
[9] = target: Mitogen-activated protein kinase 7 (Homo sapiens) (UniProt Q13164); conditions: Compound concentration 1000.0 nM
[10] = target: Alpha-2A adrenergic receptor (Homo sapiens) (UniProt P08913); conditions: Compound concentration 10.0 uM
[11] = target: Myosin light chain kinase (Homo sapiens) (UniProt Q32MK0); conditions: Compound concentration 1000.0 nM
Sequence of Myosin light chain kinase (Homo sapiens) (Q32MK0 whole entry): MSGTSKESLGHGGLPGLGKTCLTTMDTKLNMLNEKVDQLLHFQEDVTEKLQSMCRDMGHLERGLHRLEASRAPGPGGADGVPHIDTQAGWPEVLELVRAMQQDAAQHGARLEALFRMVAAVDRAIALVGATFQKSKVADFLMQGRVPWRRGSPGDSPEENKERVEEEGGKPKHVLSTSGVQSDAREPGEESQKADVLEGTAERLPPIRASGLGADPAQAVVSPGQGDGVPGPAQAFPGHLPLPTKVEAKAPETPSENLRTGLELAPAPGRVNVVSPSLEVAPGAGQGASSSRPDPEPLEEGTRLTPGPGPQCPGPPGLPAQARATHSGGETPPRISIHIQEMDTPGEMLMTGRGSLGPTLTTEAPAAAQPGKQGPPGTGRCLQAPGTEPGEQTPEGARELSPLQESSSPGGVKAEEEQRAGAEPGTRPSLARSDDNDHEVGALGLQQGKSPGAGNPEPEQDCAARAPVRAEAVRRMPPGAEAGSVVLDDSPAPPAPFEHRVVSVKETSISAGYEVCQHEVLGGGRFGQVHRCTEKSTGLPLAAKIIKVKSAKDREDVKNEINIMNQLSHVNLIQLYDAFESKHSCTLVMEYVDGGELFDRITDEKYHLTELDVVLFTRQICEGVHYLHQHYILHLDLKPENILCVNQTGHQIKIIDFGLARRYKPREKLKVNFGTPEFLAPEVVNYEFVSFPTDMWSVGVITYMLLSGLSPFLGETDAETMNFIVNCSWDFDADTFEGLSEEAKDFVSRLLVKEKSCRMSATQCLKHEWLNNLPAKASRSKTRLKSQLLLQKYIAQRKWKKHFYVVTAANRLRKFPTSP

[12] = target: Uncharacterized serine/threonine-protein kinase SBK3 (Homo sapiens) (UniProt P0C264); conditions: Compound concentration 1000.0 nM
[13] = target: Serine/threonine-protein kinase Sgk1 (Homo sapiens) (UniProt O00141); conditions: Compound concentration 1000.0 nM
Sequence of Serine/threonine-protein kinase Sgk1 (Homo sapiens) (O00141 whole entry): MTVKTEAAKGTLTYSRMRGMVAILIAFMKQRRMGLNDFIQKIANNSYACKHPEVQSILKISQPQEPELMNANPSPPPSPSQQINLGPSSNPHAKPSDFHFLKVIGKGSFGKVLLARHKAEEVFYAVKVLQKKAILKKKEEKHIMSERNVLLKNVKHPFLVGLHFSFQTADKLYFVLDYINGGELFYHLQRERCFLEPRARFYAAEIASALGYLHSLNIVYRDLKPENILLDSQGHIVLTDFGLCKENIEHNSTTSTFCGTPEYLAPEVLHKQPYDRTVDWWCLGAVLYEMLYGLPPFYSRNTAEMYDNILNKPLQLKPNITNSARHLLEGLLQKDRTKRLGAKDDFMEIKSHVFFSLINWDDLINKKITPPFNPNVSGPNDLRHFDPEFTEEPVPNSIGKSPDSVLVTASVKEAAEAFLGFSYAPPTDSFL

[14] = target: Serine/threonine-protein kinase PRP4 homolog (Homo sapiens) (UniProt Q13523); conditions: Compound concentration 1000.0 nM
[15] = target: Serine/threonine-protein kinase Nek6 (Homo sapiens) (UniProt Q9HC98); conditions: Compound concentration 1000.0 nM
[16] = target: Aurora kinase A (Homo sapiens) (UniProt O14965); conditions: Compound concentration 1000.0 nM
[17] = tested on: Leucine-rich repeat serine/threonine-protein kinase 2 (Homo sapiens), Q5S007 [G2019S]; conditions: Compound concentration 1000.0 nM
[18] = target: Death-associated protein kinase 1 (Homo sapiens) (UniProt P53355); conditions: Compound concentration 1000.0 nM
[19] = target: Mitogen-activated protein kinase 11 (Homo sapiens) (UniProt Q15759); conditions: Compound concentration 1000.0 nM
[20] = target: Serine/threonine-protein kinase SBK1 (Homo sapiens) (UniProt Q52WX2); conditions: Compound concentration 1000.0 nM
[21] = target: Proto-oncogene tyrosine-protein kinase Src (Homo sapiens) (UniProt P12931); conditions: Compound concentration 1000.0 nM
[22] = target: Serine/threonine-protein kinase D1 (Homo sapiens) (UniProt Q15139); conditions: Compound concentration 1000.0 nM
Sequence of Serine/threonine-protein kinase D1 (Homo sapiens) (Q15139 whole entry): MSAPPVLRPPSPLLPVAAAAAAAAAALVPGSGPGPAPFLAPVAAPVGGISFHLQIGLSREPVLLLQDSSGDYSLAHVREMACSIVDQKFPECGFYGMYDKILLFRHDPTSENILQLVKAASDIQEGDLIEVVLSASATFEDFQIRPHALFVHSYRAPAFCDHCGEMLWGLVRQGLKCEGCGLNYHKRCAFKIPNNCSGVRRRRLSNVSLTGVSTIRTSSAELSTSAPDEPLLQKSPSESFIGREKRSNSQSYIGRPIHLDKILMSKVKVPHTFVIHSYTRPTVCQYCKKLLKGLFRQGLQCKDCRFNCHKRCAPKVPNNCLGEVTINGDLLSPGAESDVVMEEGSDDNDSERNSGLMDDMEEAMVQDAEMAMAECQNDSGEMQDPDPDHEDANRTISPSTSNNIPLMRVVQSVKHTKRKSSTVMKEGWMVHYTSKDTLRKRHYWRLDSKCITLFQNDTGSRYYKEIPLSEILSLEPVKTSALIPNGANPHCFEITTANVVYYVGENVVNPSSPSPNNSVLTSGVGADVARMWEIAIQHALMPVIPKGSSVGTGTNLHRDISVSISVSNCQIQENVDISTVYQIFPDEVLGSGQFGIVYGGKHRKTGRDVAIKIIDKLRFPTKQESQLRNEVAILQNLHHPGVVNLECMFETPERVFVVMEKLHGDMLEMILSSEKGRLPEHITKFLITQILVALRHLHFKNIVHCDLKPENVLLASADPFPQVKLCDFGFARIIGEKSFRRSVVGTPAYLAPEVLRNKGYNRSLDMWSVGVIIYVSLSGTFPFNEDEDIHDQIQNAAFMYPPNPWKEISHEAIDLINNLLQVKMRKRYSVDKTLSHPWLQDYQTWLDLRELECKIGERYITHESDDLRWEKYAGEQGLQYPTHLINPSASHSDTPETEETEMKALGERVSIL

[23] = target: Protein kinase C delta type (Homo sapiens) (UniProt Q05655); conditions: Compound concentration 1000.0 nM
[24] = target: Dual specificity mitogen-activated protein kinase kinase 5 (Homo sapiens) (UniProt Q13163); conditions: Compound concentration 1000.0 nM
[25] = target: Tyrosine-protein kinase receptor Tie-1 (Homo sapiens) (UniProt P35590); conditions: Compound concentration 1000.0 nM
Sequence of Tyrosine-protein kinase receptor Tie-1 (Homo sapiens) (P35590 whole entry): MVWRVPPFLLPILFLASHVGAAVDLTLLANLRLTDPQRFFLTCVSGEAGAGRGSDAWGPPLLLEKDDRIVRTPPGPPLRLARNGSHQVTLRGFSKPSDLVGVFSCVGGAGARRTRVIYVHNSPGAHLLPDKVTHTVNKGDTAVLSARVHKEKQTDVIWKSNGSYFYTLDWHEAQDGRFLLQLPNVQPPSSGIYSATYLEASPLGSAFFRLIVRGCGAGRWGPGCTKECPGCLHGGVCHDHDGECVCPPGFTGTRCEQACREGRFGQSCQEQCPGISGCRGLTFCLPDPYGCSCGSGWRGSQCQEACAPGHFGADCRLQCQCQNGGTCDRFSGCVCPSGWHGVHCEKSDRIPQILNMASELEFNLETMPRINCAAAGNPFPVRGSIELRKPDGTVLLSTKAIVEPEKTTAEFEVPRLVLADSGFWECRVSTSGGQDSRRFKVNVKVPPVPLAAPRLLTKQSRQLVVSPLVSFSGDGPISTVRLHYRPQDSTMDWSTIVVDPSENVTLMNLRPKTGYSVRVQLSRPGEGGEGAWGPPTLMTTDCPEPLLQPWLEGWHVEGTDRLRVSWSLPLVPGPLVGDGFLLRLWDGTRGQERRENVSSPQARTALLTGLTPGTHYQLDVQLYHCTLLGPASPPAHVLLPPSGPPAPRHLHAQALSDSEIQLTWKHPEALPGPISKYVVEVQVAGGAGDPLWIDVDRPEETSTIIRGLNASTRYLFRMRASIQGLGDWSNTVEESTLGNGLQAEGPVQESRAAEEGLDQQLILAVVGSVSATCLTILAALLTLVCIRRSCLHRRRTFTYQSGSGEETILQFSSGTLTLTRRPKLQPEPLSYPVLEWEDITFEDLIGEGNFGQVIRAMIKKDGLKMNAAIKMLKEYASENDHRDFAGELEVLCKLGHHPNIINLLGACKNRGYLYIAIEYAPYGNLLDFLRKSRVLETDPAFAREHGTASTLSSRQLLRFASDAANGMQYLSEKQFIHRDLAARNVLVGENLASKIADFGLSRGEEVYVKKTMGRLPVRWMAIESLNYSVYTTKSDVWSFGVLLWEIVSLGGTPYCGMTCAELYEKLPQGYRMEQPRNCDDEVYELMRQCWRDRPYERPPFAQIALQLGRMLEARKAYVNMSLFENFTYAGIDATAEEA

[26] = target: Leukocyte tyrosine kinase receptor (Homo sapiens) (UniProt P29376); conditions: Compound concentration 1000.0 nM
[27] = target: Serine/threonine-protein kinase OSR1 (Homo sapiens) (UniProt O95747); conditions: Compound concentration 1000.0 nM
[28] = target: Cyclin-dependent kinase 8 (Homo sapiens, UniProt P49336); conditions: Compound concentration 1000.0 nM
[29] = target: Dual specificity tyrosine-phosphorylation-regulated kinase 1B (Homo sapiens) (UniProt Q9Y463); conditions: Compound concentration 1000.0 nM
[30] = target: Serine/threonine-protein kinase PAK 1 (Homo sapiens) (UniProt Q13153); conditions: Compound concentration 1000.0 nM
[31] = tested on: Epidermal growth factor receptor (Homo sapiens), P00533 [UNDEFINED MUTATION]; conditions: Compound concentration 1000.0 nM
[32] = target: Dual serine/threonine and tyrosine protein kinase (Homo sapiens) (UniProt Q6XUX3); conditions: Compound concentration 1000.0 nM
[33] = tested on: Epidermal growth factor receptor (Homo sapiens), P00533 [T790M]; conditions: Compound concentration 1000.0 nM
[34] = target: Tyrosine-protein kinase JAK1 (Homo sapiens) (UniProt P23458); conditions: Compound concentration 1000.0 nM
[35] = target: Casein kinase I isoform alpha (Homo sapiens) (UniProt P48729); conditions: Compound concentration 1000.0 nM
[36] = target: Dual specificity mitogen-activated protein kinase kinase 7 (Homo sapiens) (UniProt O14733); conditions: Compound concentration 1000.0 nM
[37] = target: Serine/threonine-protein kinase pim-3 (Homo sapiens) (UniProt Q86V86); conditions: Compound concentration 1000.0 nM
[38] = target: Mast/stem cell growth factor receptor Kit (Homo sapiens) (UniProt P10721); conditions: Compound concentration 1000.0 nM
[39] = target: Myosin-IIIa (Homo sapiens) (UniProt Q8NEV4); conditions: Compound concentration 1000.0 nM
[40] = target: Microtubule-associated serine/threonine-protein kinase 1 (Homo sapiens) (UniProt Q9Y2H9); conditions: Compound concentration 1000.0 nM
[41] = target: Serine/threonine-protein kinase LATS2 (Homo sapiens) (UniProt Q9NRM7); conditions: Compound concentration 1000.0 nM
[42] = target: Beta-1 adrenergic receptor (Homo sapiens) (UniProt P08588); conditions: Compound concentration 10.0 uM
[43] = target: Mitogen-activated protein kinase 14 (Homo sapiens) (UniProt Q16539); conditions: Compound concentration 1000.0 nM
Sequence of Mitogen-activated protein kinase 14 (Homo sapiens) (Q16539 whole entry): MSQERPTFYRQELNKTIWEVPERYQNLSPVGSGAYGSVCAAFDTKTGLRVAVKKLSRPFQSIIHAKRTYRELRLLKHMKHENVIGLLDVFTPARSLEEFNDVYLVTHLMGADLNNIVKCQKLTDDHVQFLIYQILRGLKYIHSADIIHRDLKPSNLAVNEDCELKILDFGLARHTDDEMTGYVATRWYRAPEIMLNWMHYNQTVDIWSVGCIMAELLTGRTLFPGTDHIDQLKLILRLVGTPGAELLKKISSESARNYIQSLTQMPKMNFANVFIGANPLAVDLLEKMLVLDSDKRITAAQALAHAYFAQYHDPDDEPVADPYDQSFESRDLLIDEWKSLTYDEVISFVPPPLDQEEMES

[44] = target: Ribosomal protein S6 kinase alpha-2 (Homo sapiens) (UniProt Q15349); conditions: Compound concentration 1000.0 nM
[45] = tested on: Tyrosine-protein kinase ABL1 (Homo sapiens), P00519 [F317I]; conditions: Compound concentration 1000.0 nM

`O=c1nc(-c2ccccn2)sc2ccccc12` [BTZO-1] showed a residual activity [1] of 83%, a residual activity [2] of 82% and an inhibition [3] of -9.43%. The residual activity [4] was 100%, the residual activity [5] was 100% and the residual activity [6] was 100%. The residual activity [7] was 88%, the inhibition [8] was 2% and the residual activity [9] was 100%. It also gave an inhibition [10] of 0.132%, a residual activity [11] of 100% and a residual activity [12] of 100%. For the same compound, the residual activity [13] was 99%, the residual activity [14] was 71% and the residual activity [15] was 100%. It also gave a residual activity [16] of 87%, a residual activity [17] of 92% and a residual activity [18] of 100%. The residual activity [19] was 100%, the residual activity [20] was 100% and the residual activity [21] was 92%. It also gave a residual activity [22] of 100%, a residual activity [23] of 100% and a residual activity [24] of 79%. The residual activity [25] was 91%, the residual activity [26] was 99% and the residual activity [27] was 100%. It also gave a residual activity [28] of 36%, a residual activity [29] of 100% and a residual activity [30] of 94%. It also gave a residual activity [31] of 100%, a residual activity [32] of 88% and a residual activity [33] of 100%. It also gave a residual activity [34] of 86%, a residual activity [35] of 76% and a residual activity [36] of 93%. It also gave a residual activity [37] of 100%, a residual activity [38] of 79% and a residual activity [39] of 92%. It also gave a residual activity [40] of 73%, a residual activity [41] of 79% and an inhibition [42] of -8.56%. The residual activity [43] was 94%, the residual activity [44] was 100% and the residual activity [45] was 100%.

`O=C1NC(c2ccccn2)Sc2ccccc21` (stereo not given) [BTZO-4] showed a residual activity [1] of 69%, a residual activity [2] of 88% and an inhibition [3] of -4.89%. It also gave a residual activity [4] of 93%, a residual activity [5] of 100% and a residual activity [6] of 94%. For the same compound, the residual activity [7] was 77%, the inhibition [8] was 8.1% and the residual activity [9] was 96%. It also gave an inhibition [10] of 12.7%, a residual activity [11] of 100% and a residual activity [12] of 86%. The residual activity [13] was 87%, the residual activity [14] was 78% and the residual activity [15] was 84%. For the same compound, the residual activity [16] was 93%, the residual activity [17] was 81% and the residual activity [18] was 100%. The residual activity [19] was 100%, the residual activity [20] was 100% and the residual activity [21] was 85%. It also gave a residual activity [22] of 100%, a residual activity [23] of 71% and a residual activity [24] of 87%. For the same compound, the residual activity [25] was 65%, the residual activity [26] was 89% and the residual activity [27] was 100%. It also gave a residual activity [28] of 78%, a residual activity [29] of 100% and a residual activity [30] of 96%. It also gave a residual activity [31] of 100%, a residual activity [32] of 92% and a residual activity [33] of 96%. For the same compound, the residual activity [34] was 69%, the residual activity [35] was 72% and the residual activity [36] was 87%. The residual activity [37] was 100%, the residual activity [38] was 89% and the residual activity [39] was 85%. It also gave a residual activity [40] of 91%, a residual activity [41] of 70% and an inhibition [42] of -1.52%. The residual activity [43] was 81%, the residual activity [44] was 93% and the residual activity [45] was 90%.
